Data taken from US20240368135A1 (VERTEX PHARMACEUTICALS INCORPORATED, priority 2021, published 2024).

Target: human NaV 1.8 (Homo sapiens, UniProt Q9Y5Y9)
Assay: E-VIPR assay detecting and measuring NaV inhibition properties
Format: cell-based
Conditions: HEK cells expressing truncated human NaV 1.8; no human serum; read-out: IC50 in the E-VIPR Assay
Method in brief: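 Membrane potential was followed by coumarin/oxonol FRET during electrical field stimulation of matrigel-seeded HEK cells carrying truncated human NaV1.8 plus KIR2.1. Dosing used 11 points, 3-fold steps, top 300 nM final, 0.625% DMSO, with or without 25% human serum.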

Chain of human NaV 1.8 (Q9Y5Y9 126-399 limits assumed): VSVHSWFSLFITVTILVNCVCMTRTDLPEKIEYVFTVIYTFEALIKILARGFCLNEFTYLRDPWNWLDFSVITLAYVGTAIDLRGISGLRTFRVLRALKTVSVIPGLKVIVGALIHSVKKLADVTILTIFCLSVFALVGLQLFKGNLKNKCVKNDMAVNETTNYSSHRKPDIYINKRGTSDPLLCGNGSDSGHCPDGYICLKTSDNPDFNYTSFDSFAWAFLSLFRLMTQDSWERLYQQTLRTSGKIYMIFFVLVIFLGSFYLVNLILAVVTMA
Chain of human NaV 1.8 (Q9Y5Y9 660-890 limits assumed): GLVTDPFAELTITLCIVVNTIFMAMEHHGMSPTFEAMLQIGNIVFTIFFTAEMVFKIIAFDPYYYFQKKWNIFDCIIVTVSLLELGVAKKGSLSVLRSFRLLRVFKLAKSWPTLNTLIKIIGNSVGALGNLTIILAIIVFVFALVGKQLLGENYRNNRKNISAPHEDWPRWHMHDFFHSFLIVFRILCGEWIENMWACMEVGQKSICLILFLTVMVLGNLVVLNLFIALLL
Chain of human NaV 1.8 (Q9Y5Y9 1148-1722 limits assumed): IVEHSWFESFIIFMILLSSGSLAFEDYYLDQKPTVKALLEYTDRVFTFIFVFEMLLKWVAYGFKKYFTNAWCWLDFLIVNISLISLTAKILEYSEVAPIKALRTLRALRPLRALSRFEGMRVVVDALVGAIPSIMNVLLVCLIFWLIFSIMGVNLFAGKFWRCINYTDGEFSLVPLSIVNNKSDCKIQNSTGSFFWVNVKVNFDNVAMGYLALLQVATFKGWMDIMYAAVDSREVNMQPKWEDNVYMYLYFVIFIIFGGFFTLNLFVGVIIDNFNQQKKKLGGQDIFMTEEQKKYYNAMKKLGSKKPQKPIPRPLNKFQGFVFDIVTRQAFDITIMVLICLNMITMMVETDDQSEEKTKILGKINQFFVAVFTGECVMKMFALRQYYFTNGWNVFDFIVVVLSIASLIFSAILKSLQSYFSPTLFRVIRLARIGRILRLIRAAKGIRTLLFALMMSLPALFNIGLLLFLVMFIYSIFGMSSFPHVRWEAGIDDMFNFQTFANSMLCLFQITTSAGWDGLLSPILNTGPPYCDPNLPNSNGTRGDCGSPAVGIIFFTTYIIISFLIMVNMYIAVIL

| Compound | IC50 [nM] |
| --- | --- |
| COc1c([C@H]2[C@H](C(=O)Nc3ccc(C(=O)NC#N)nc3)O[C@@](C)(C(F)(F)F)[C@H]2C)ccc(F)c1F [Compound 373, N-cyano-5-[[(2R,3S,4S,5R)-3-(3,4-difluoro-2-methoxy-phenyl)-4,5-dimethyl-5-(trifluoromethyl)tetrahydrofuran-2-carbonyl]amino]pyridine-2-carboxamide] | 100 to 1000 |
| COc1c(C2C(C(=O)Nc3ccc(P(C)(C)=O)cc3)OC(C)(C(F)(F)F)C2C)ccc(F)c1F (single isomer, unassigned) [Compound 39, 3-(3,4-difluoro-2-methoxy-phenyl)-N-(4-dimethylphosphorylphenyl)-4,5-dimethyl-5-(trifluoromethyl)tetrahydrofuran-2-carboxamide] | 100 to 1000 |
| CCOc1c([C@H]2[C@H](C(=O)Nc3ccnc(S(C)(=N)=O)c3)O[C@@](C)(C(F)(F)F)[C@H]2C)ccc(F)c1C (relative stereo) [Compound 125, rel-(2R,3S,4S,5R)-3-(2-ethoxy-4-fluoro-3-methylphenyl)-4,5-dimethyl-N-(2-(S-methylsulfonimidoyl)pyridin-4-yl)-5-(trifluoromethyl)tetrahydrofuran-2-carboxamide] | < 10 |
| COC1CN(CCOc2c([C@H]3[C@H](C(=O)Nc4conc4C)O[C@@](C)(C(F)(F)F)[C@H]3C)ccc(F)c2F)C1 [Compound 627, (2R,3S,4S,5R)-3-(3,4-difluoro-2-(2-(3-methoxyazetidin-1-yl)ethoxy)phenyl)-4,5-dimethyl-N-(3-methylisoxazol-4-yl)-5-(trifluoromethyl)tetrahydrofuran-2-carboxamide] | 10 to 100 |
| COc1c([C@H]2[C@H](C(=O)Nc3ccnc(N4C(=O)CN(C)C[C@H]4C)c3)O[C@@](C)(C(F)(F)F)[C@H]2C)ccc(F)c1F [Compound 465, (2R,3S,4S,5R)-3-(3,4-difluoro-2-methoxyphenyl)-N-(2-((R)-2,4-dimethyl-6-oxopiperazin-1-yl)pyridin-4-yl)-4,5-dimethyl-5-(trifluoromethyl)tetrahydrofuran-2-carboxamide] | < 10 |
| CCOc1c([C@@H]2[C@@H](C(=O)Nc3ccnc(S(C)(=O)=O)c3)O[C@](C)(C(F)(F)F)[C@@H]2C)ccc(F)c1F (stereo in doubt) [Compound 4, rel-(2S,3R,4R,5S)-3-(2-ethoxy-3,4-difluorophenyl)-4,5-dimethyl-N-(2-(methylsulfonyl)pyridin-4-yl)-5-(trifluoromethyl)tetrahydrofuran-2-carboxamide] | ≥ 1000 |
| COc1c([C@H]2[C@H](C(=O)Nc3cn(C4COC4)nc3C)O[C@@](C)(C(F)(F)F)[C@H]2C)ccc(F)c1F (single isomer, unassigned) [Compound 330] | < 10 |
| COc1c(C2C(C(=O)Nc3cc[n+]([O-])c(C(O)CO)c3)OC(C)(C(F)(F)F)C2C)ccc(F)c1F (stereo not drawn) [Compound 210, 3-(3,4-difluoro-2-methoxy-phenyl)-N-[2-(1,2-dihydroxyethyl)-1-oxido-pyridin-1-ium-4-yl]-4,5-dimethyl-5-(trifluoromethyl)tetrahydrofuran-2-carboxamide] | 10 to 100 |
| COCC(C)(C)NCc1cc(NC(=O)[C@@H]2O[C@@](C)(C(F)(F)F)[C@@H](C)[C@H]2c2ccc(F)c(F)c2OC)ccn1 [Compound 410, (2R,3S,4S,5R)-3-(3,4-difluoro-2-methoxyphenyl)-N-(2-(((1-methoxy-2-methylpropan-2-yl)amino)methyl)-pyridin-4-yl)-4,5-dimethyl-5-(trifluoromethyl)-tetrahydrofuran-2-carboxamide] | 10 to 100 |
| COc1c([C@H]2[C@H](C(=O)Nc3ccnc(O[C@@H]4COC[C@@H]4O)c3)O[C@@](C)(C(F)(F)F)[C@H]2C)ccc(F)c1F (single isomer, unassigned) [Compound 239, rel-(2R*,3S*,4S*,5R*)-3-(3,4-difluoro-2-methoxyphenyl)-N-(2-(((3R,4S)-4-hydroxytetrahydrofuran-3-yl)oxy)pyridin-4-yl)-4,5-dimethyl-5-(trifluoromethyl)tetrahydrofuran-2-carboxamide] | < 10 |
| COc1c([C@H]2[C@H](C(=O)Nc3ccc4nc(C(=O)NCCO)cn4c3)O[C@@](C)(C(F)(F)F)[C@H]2C)ccc(F)c1F [Compound 260, 6-((2R,3S,4S,5R)-3-(3,4-difluoro-2-methoxyphenyl)-4,5-dimethyl-5-(trifluoromethyl)tetrahydrofuran-2-carboxamido)-N-(2-hydroxyethyl)imidazo[1,2-a]pyridine-2-carboxamide] | 10 to 100 |
| COCCOc1cc(NC(=O)C2OC(C)(C(F)(F)F)C(C)C2c2ccc(F)c(F)c2OC)cnn1 (single isomer, unassigned) [Compound 33, 3-(3,4-difluoro-2-methoxy-phenyl)-N-[6-(2-methoxyethoxy)pyridazin-4-yl]-4,5-dimethyl-5-(trifluoromethyl)tetrahydrofuran-2-carboxamide] | ≥ 1000 |
| COCC(O)c1cc(NC(=O)[C@@H]2O[C@@](C)(C(F)(F)F)[C@@H](C)[C@H]2c2ccc(F)c(F)c2OCCN2CC3CC(C2)O3)ccn1 (single isomer, unassigned) [Compound 610, rel-(2R*,3S*,4S*,5R*)-3-(2-(2-(6-oxa-3-azabicyclo[3.1.1]heptan-3-yl)ethoxy)-3,4-difluorophenyl)-N-(2-(1-hydroxy-2-methoxyethyl)pyridin-4-yl)-4,5-dimethyl-5-(trifluoromethyl)tetrahydrofuran-2-carboxamide] | 10 to 100 |
| COc1c([C@H]2[C@H](C(=O)Nc3ccnc(C(O)CN(C)C)c3)O[C@@](C)(C(F)(F)F)[C@H]2C)ccc(F)c1F (stereo partly drawn) [Compound 378, (2R,3S,4S,5R)-3-(3,4-difluoro-2-methoxy-phenyl)-N-[2-[2-(dimethylamino)-1-hydroxy-ethyl]-4-pyridyl]-4,5-dimethyl-5-(trifluoromethyl)tetrahydrofuran-2-carboxamide] | < 10 |
| COc1c(C2C(C(=O)Nc3ccc(C(N)=O)nc3)OC(C)(C(F)(F)F)C2C)ccc(C(F)F)c1F (stereo not drawn) [Compound 159, 5-[[3-[4-(difluoromethyl)-3-fluoro-2-methoxy-phenyl]-4,5-dimethyl-5-(trifluoromethyl)tetrahydrofuran-2-carbonyl]amino]pyridine-2-carboxamide] | ≥ 1000 |

Continued, values first:

| IC50 [nM] | Compound |
| --- | --- |
| 100 to 1000 | CN=S(C)(=O)c1cc(NC(=O)[C@H]2O[C@](C)(C(F)(F)F)[C@H](C)[C@@H]2c2ccc(F)c(F)c2OC)ccn1 (relative stereo) [Compound 527, rel-(2S,3R,4R,5S)-3-(3,4-difluoro-2-methoxyphenyl)-N-(2-(N,S-dimethylsulfonimidoyl)pyridin-4-yl)-4,5-dimethyl-5-(trifluoromethyl)tetrahydrofuran-2-carboxamide] |
| 10 to 100 | COc1c([C@H]2[C@H](C(=O)Nc3ccc(S(N)(=O)=O)nc3)O[C@@](C)(C(F)(F)F)[C@H]2C)ccc(F)c1F [Compound 235, (2R,3S,4S,5R)-3-(3,4-difluoro-2-methoxy-phenyl)-4,5-dimethyl-N-(6-sulfamoyl-3-pyridyl)-5-(trifluoromethyl)tetrahydrofuran-2-carboxamide] |
| 10 to 100 | COc1c([C@H]2[C@H](C(=O)Nc3ccnc(N4C(=O)CNC[C@@H]4C)c3)O[C@@](C)(C(F)(F)F)[C@H]2C)ccc(F)c1F [Compound 479, (2R,3S,4S,5R)-3-(3,4-difluoro-2-methoxyphenyl)-4,5-dimethyl-N-(2-((S)-2-methyl-6-oxopiperazin-1-yl)pyridin-4-yl)-5-(trifluoromethyl)tetrahydrofuran-2-carboxamide] |
| < 10 | CNC(CO)c1cc(NC(=O)[C@@H]2O[C@@](C)(C(F)(F)F)[C@@H](C)[C@H]2c2ccc(F)c(F)c2OC)ccn1 (single isomer, unassigned) [Compound 232] |
| < 10 | CNCC(=O)N(C)c1cc(NC(=O)[C@@H]2O[C@@](C)(C(F)(F)F)[C@@H](C)[C@H]2c2ccc(F)c(F)c2OC)ccn1 [Compound 486, (2R,3S,4S,5R)-3-(3,4-difluoro-2-methoxyphenyl)-4,5-dimethyl-N-(2-(N-methyl-2-(methylamino)acetamido)pyridin-4-yl)-5-(trifluoromethyl)tetrahydrofuran-2-carboxamide] |
| < 10 | COc1c([C@H]2[C@H](C(=O)Nc3ccnc(C(C)(O)CF)c3)O[C@@](C)(C(F)(F)F)[C@H]2C)ccc(F)c1F (single isomer, unassigned) [Compound 226, rel-(2R*,3S*,4S*,5R*)-3-(3,4-difluoro-2-methoxyphenyl)-N-(2-(1-fluoro-2-hydroxypropan-2-yl)pyridin-4-yl)-4,5-dimethyl-5-(trifluoromethyl)tetrahydrofuran-2-carboxamide] |
| 100 to 1000 | COc1c([C@H]2[C@H](C(=O)Nc3ccc(C(C)(O)CF)nc3)O[C@@](C)(C(F)(F)F)[C@H]2C)ccc(F)c1F (single isomer, unassigned) [Compound 224, rel-(2R*,3S*,4S*,5R*)-3-(3,4-difluoro-2-methoxyphenyl)-N-(6-(1-fluoro-2-hydroxypropan-2-yl)pyridin-3-yl)-4,5-dimethyl-5-(trifluoromethyl)tetrahydrofuran-2-carboxamide] |
| < 10 | Cc1c(F)ccc([C@H]2[C@H](C(=O)Nc3ccn(C)c(=O)c3)O[C@@](C)(C(F)(F)F)[C@H]2C)c1OC(F)F (stereo in doubt) [Compound 100, rel-(2R,3S,4S,5R)-3-(2-(difluoromethoxy)-4-fluoro-3-methylphenyl)-4,5-dimethyl-N-(1-methyl-2-oxo-1,2-dihydropyridin-4-yl)-5-(trifluoromethyl)tetrahydrofuran-2-carboxamide] |
| 10 to 100 | Cc1cc(NC(=O)[C@@H]2O[C@@](C)(C(F)(F)F)[C@@H](C)[C@H]2c2ccc(F)c(F)c2OCCO)ccn1 [Compound 560, (2R,3S,4S,5R)-3-(3,4-difluoro-2-(2-hydroxyethoxy)phenyl)-4,5-dimethyl-N-(2-methylpyridin-4-yl)-5-(trifluoromethyl)tetrahydrofuran-2-carboxamide] |
